Values quoted from earlier work as cited in patent US20230363334A1, “METHOD FOR INCREASING CONTENT AND GENE EXPRESSION OF AROMATIC SUBSTANCE IN FRUITS AND VEGETABLES BY USING HYDROGEN-RICH WATER” (NANJING AGRICULTURAL UNIVERSITY, priority 2020, published 2023).

Conditions: one atmosphere and 20° C.

## [HH] [hydrogen]
  Maximum concentration of hydrogen dissolved in water (saturation concentration): 1.6 ppm
  Solubility of hydrogen (volumes of hydrogen per volume of water): 1.83%
